What was measured:
IDO1 enzyme = IDO1 enzyme (Homo sapiens, UniProt P14902); test: Determination of biochemical activity of IDO1 enzyme (absorbance at 320 nm); conditions: room temperature, 3 hours
In short: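 Enzyme and compound were reacted in sodium hydrogen phosphate buffer (pH 7-8) for 3 hours at room temperature. Absorbance at 320 nm gave inhibition rate, and IC50 was calculated from it.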

[1] = molecular target: T1, IDO1 enzyme in the Hela cell (Homo sapiens, UniProt P14902); test: Cell activity: interferon γ-stimulated Hela cells, absorbance of supernatant at 480 nm; type: cell-based; conditions: interferon γ 100 ng/ml, 72 hours
T1 construct: endogenous in cells; host or cells: HeLa cells stimulated with interferon γ (100 ng/ml)
In short: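 HeLa cells treated with compound plus interferon γ (100 ng/ml final) and cultured 72 h at 37 °C. Supernatant treated with trichloroacetic acid 30 min at 50 °C, centrifuged, then mixed with 2% dimethylaminobenzaldehyde in acetic acid; absorbance read at 480 nm.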

IDO1 enzyme, sequence (P14902 whole entry): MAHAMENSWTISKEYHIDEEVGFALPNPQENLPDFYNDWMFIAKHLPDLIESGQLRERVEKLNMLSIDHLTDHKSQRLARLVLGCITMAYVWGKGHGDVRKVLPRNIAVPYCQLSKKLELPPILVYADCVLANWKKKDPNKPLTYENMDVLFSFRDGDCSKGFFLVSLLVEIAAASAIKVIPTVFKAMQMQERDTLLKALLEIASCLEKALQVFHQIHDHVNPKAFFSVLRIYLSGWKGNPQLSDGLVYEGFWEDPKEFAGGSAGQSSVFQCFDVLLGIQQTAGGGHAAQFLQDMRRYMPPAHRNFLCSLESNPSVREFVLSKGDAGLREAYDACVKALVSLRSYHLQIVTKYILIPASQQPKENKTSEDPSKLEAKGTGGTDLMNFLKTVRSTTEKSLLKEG
T1 sequence (P14902 whole entry): as above

Structure (SMILES) | IC50 (IDO1 enzyme) [µM] | IC50 [1] [µM]
O=C(Nc1nocc1/C(=N/O)Nc1ccc(F)c(Br)c1)NC1CCCCC1 [Embodiment 82, (Z)-1-(4-(N-(3-bromo-4-fluorophenyl)-N′-hydroxyaminoiminomethyl)-isoxazole-3-substituted)-3-(cyclohexyl)urea] | 0.1 to 1 | 0.1 to 1
COc1cccc(NC(=O)Nc2nocc2/C(=N/O)Nc2ccc(F)c(Br)c2)c1 [Embodiment 80, (Z)-1-(4-(N-(3-bromo-4-fluorophenyl)-N′-hydroxyaminoiminomethyl)-isoxazole-3-substituted)-3-(3-methoxyphenyl)urea] | > 1 | > 1
N=C(Nc1ccc(N)cc1)Nc1nonc1/C(=N/O)Nc1ccc(F)c(Br)c1 [Embodiment 142, (Z)-1-(4-(N-(3-bromo-4-fluorophenyl)-N′-hydroxyaminoiminomethyl)-1,2,5-oxadiazole-3-substituted)-3-(4-aminophenyl)guanidine] | < 0.001 | < 0.001
O=C(Nc1conc1/C(=N/O)Nc1ccc(F)c(Br)c1)NC1CC1 [Embodiment 107, (Z)-1-(4-(N-(3-bromo-4-fluorophenyl)-N′-hydroxyaminoiminomethyl)-isoxazole-3-substituted)-4-cyclopropylurea] | > 1 | > 1
